4 compounds from EP4786487A1, “PEPTIDE” (Peptidream Inc, priority 2023, dated 2025) can be followed below.

Assay [1] deals with T1, Myostatin (Homo sapiens, UniProt O14793).
T1 construct: active myostatin (also called mature myostatin) is a homodimer consisting of two C-terminal growth factor domains; purchased R&D systems 788-G8/CF
T1 sequence (O14793 267-375): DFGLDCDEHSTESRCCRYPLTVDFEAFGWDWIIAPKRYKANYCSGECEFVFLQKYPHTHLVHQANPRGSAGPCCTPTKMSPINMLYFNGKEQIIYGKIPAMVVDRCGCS
In words: HepG2 reporter gene assay, Evaluation Procedure (2): 2-concentrations assay, myostatin inhibition. Type of assay: cell-based. Put shortly:
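HepG2 cells (HB-8065, ATCC) carrying the transfected pGL3(CAGA)12-luc reporter plasmid were treated with myostatin (788-G8/CF, R&D systems) at a final concentration of 10 ng/mL plus peptide and incubated at 37°C, 5% CO2 for 20 to 24 hours. Luminescence was read after adding PBS mixed 1:1 with One-Glo substrate, and inhibition rate was calculated.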

The target of assay [2] is T2, GDF-11 (Homo sapiens, UniProt O95390).
T2 construct: purchased R&D systems 1958-GD-G8/CF
T2 sequence (O95390 299-407): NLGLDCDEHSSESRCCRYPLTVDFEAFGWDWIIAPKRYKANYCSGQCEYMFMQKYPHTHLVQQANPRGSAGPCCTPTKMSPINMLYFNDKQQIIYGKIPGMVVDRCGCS
In words: HepG2 reporter gene assay, Evaluation Procedure (2): 2-concentrations assay, GDF-11 inhibition. The assay is classed as cell-based. The method in brief: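 HepG2 cells carrying the transfected pGL3(CAGA)12-luc reporter, a pGL3 vector with luciferase placed downstream of 12 CAGA repeats, were stimulated with GDF-11 at a final 10 ng/mL together with test peptide. Blank wells received no GDF-11 and no peptide. Plates were incubated 20 to 24 hours at 37°C with 5% CO2. Luminescence from One-Glo substrate was read to calculate percent inhibition.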
In general terms: Reporter assays use an easily measured gene product as a stand-in for the process of interest.

The mark [3] stands for this setting: Table 7-3/7-4, myostatin 10 ng/mL, peptide at the higher of the 2 concentrations, HepG2, read-out: inhibition rate (myostatin inhibition assay).
[4] abbreviates: Table 7-3/7-4, myostatin 10 ng/mL, peptide at the lower of the 2 concentrations, HepG2, read-out: inhibition rate (myostatin inhibition assay).
[5] abbreviates: HepG2, first GDF-11 column of Table 7-3/7-4, GDF-11 10 ng/mL, peptide at the lower of the 2 concentrations, read-out: inhibition rate (GDF-11 inhibition assay).
Setting [6] is: HepG2, second GDF-11 column of Table 7-3/7-4, GDF-11 10 ng/mL, peptide at the higher of the 2 concentrations, read-out: inhibition rate (GDF-11 inhibition assay).
The mark [7] stands for this setting: HepG2, read-out: inhibition rate (myostatin inhibition assay).

Where two headings read alike, the source gives them in different places. Starred links: 1 amine or outer side, 2 acyl side, 3 side chain; linkers in the order of their positions; H or OH if unused. Positions of bridges follow the written chain, without caps; N, C: chain ends. Non-standard residues stand in square brackets, D forms with d. Residues, ends and D or L forms follow the SMILES beside them. *: point of attachment. X16 = O=C([C@H](Cc1c[nH]c2c(-c3cccc(Cl)c3)cccc12)N[*:1])[*:2]; X6 = CS(=O)(=O)c1ccc(-c2ccc(C[C@H](N[*:1])C(=O)[*:2])cc2)cc1; Phe(3-OCH2COOH) = N[C@@H](Cc1cccc(OCC(=O)O)c1)C(=O)O; Trp(1-Ph) = N[C@@H](Cc1cn(-c2ccccc2)c2ccccc12)C(=O)O; Phe(4-COOH) = N[C@@H](Cc1ccc(C(=O)O)cc1)C(=O)O; Piperazinyl(4-CH2COOH) = O=C(O)CN1CCN(*)CC1; Piperidinyl(4-CH2COOH) = O=C(O)CC1CCN(*)CC1; Gly(decyl) = CCCCCCCCCC[C@H](N)C(=O)O; Gly(N(CH2)3COOH) = O=C(O)CCCNCC(=O)O; X1 = CCCCCCC[C@H](N[*:1])C(=O)[*:2]; NMeF = CN[C@@H](Cc1ccccc1)C(=O)O; 4Pal = N[C@@H](Cc1ccncc1)C(=O)O; NMeE = CN[C@@H](CCC(=O)O)C(=O)O; Cha = N[C@@H](CC1CCCCC1)C(=O)O; NMeA = CN[C@@H](C)C(=O)O; Sar = CNCC(=O)O

`CCCCCCC[C@@H]1NC(=O)[C@H](Cc2ccccc2)N(C)C(=O)[C@H](CCCNC(=N)N)NC(=O)[C@H](Cc2ccc(C(=O)O)cc2)NC(=O)[C@H](Cc2cccc(OCC(=O)O)c2)NC(=O)[C@H](C)N(C)C(=O)[C@H]([C@@H](C)CC)NC(=O)[C@H](Cc2ccccc2)N(C)C(=O)[C@H](Cc2ccc(O)cc2)NC(=O)[C@H](Cc2c[nH]c3c(-c4cccc(Cl)c4)cccc23)NC(=O)[C@H](C)NC(=O)CN(CCCC(=O)O)C(=O)CSC[C@H](C(=O)O)NC(=O)[C@H](Cc2ccccc2)N(C)C(=O)[C@H](C)N(C)C1=O` [Myostatin_99_v378] ({CH2CO}-[Gly(N(CH2)3COOH)]A[X16]Y[NMeF]I[NMeA][Phe(3-OCH2COOH)][Phe(4-COOH)]R[NMeF][X1][NMeA][NMeF][dC]-OH; thioether N-15): the inhibition at 0.1 µM in assay [1] (setting [3]) amounted to 100%. The inhibition at 0.03 µM in assay [1] (setting [4]) is 99%. Further, the inhibition in assay [2] (setting [5]) and in assay [2] (setting [6]) was 0% throughout.
With `CC[C@H](C)[C@@H]1NC(=O)[C@H](Cc2ccccc2)N(C)C(=O)[C@H](Cc2ccc(O)cc2)NC(=O)[C@H](Cc2c[nH]c3ccccc23)NC(=O)[C@H](C)NC(=O)CN(CCCC(=O)O)C(=O)CSC[C@H](C(N)=O)NC(=O)[C@H](Cc2ccccc2)N(C)C(=O)[C@H](C)N(C)C(=O)[C@H](CC(C)C)NC(=O)[C@H](Cc2ccccc2)N(C)C(=O)[C@H](CCCNC(=N)N)NC(=O)[C@H](Cc2ccncc2)NC(=O)[C@H](Cc2ccc(O)cc2)NC(=O)CN(C)C1=O` [Myostatin_99_Variant_17] ({CH2CO}-[Gly(N(CH2)3COOH)]AWY[NMeF]I[Sar]Y[4Pal]R[NMeF]L[NMeA][NMeF][dC]-NH2; thioether N-15), the inhibition at 0.03 µM stood at 37% in assay [1] (peptide 30nM, Myostatin 10 ng/mL, HepG2, read-out: Myostatin Inhibition 30nM) and 0% in assay [2] (HepG2, peptide 30nM, GDF-11 10 ng/mL, read-out: GDF11 Inhibition 30nM). The inhibition at 0.1 µM in assay [1] (peptide 100nM, Myostatin 10 ng/mL, HepG2, read-out: Myostatin Inhibition 100nM) was determined as 72%; in assay [2] (HepG2, peptide 100nM, GDF-11 10 ng/mL, read-out: GDF11 Inhibition 100nM), 14%.
Turning to `CCCCCCCCCC[C@@H]1NC(=O)[C@H](CC2CCCCC2)NC(=O)[C@H](CCCNC(=N)N)NC(=O)[C@H](Cc2ccc(C(=O)O)cc2)NC(=O)[C@H](Cc2cccc(OCC(=O)O)c2)NC(=O)[C@H](C)N(C)C(=O)[C@H]([C@@H](C)CC)NC(=O)[C@H](Cc2ccccc2)N(C)C(=O)[C@H](Cc2ccc(O)cc2)NC(=O)[C@H](Cc2cn(-c3ccccc3)c3ccccc23)NC(=O)[C@H](C)NC(=O)[C@H](C)NC(=O)CSC[C@H](C(=O)N2CCN(CC(=O)O)CC2)NC(=O)[C@H](Cc2ccccc2)N(C)C(=O)[C@H](CCC(=O)O)N(C)C1=O` [Myostatin_99_v333] ({CH2CO}-AA[Trp(1-Ph)]Y[NMeF]I[NMeA][Phe(3-OCH2COOH)][Phe(4-COOH)]R[Cha][Gly(decyl)][NMeE][NMeF][dC]-{Piperazinyl(4-CH2COOH)}; thioether N-15), the inhibition at 0.1 µM in assay [1] (setting [3]) is 100%. Also, the inhibition at 0.03 µM in assay [1] (setting [4]) is 100%. The inhibition turned out to be 0% in assay [2] (setting [5]) and 34% in assay [2] (setting [6]).
For `CCCCCCCCCC[C@@H]1NC(=O)[C@H](Cc2ccccc2)N(C)C(=O)[C@H](CCCNC(=N)N)NC(=O)[C@H](Cc2ccc(C(=O)O)cc2)NC(=O)[C@H](Cc2cccc(OCC(=O)O)c2)NC(=O)[C@H]2CCCN2C(=O)[C@H]([C@@H](C)CC)NC(=O)[C@H](Cc2ccccc2)N(C)C(=O)[C@H](Cc2ccc(O)cc2)NC(=O)[C@H](Cc2ccc(-c3ccc(S(C)(=O)=O)cc3)cc2)NC(=O)[C@H](C)NC(=O)[C@H](C)NC(=O)CSC[C@H](C(=O)N2CCC(CC(=O)O)CC2)NC(=O)[C@H](Cc2ccccc2)N(C)C(=O)[C@H](CCC(=O)O)N(C)C1=O` [Myostatin_99_v342] ({CH2CO}-AA[X6]Y[NMeF]I[dP][Phe(3-OCH2COOH)][Phe(4-COOH)]R[NMeF][Gly(decyl)][NMeE][NMeF][dC]-{Piperidinyl(4-CH2COOH)}; thioether N-15), in assay [1] (setting [7]), the inhibition at 0.03 µM was 100% and the inhibition at 0.1 µM stood at 100%. Further, the inhibition in assay [2] (HepG2, read-out: inhibition rate (GDF-11 inhibition assay), Table 7-3/7-4, GDF-11 10 ng/mL, peptide at the higher of the 2 concentrations) came out at 47%. Besides, the inhibition in assay [2] (HepG2, read-out: inhibition rate (GDF-11 inhibition assay), Table 7-3/7-4, GDF-11 10 ng/mL, peptide at the lower of the 2 concentrations) is 0%.
